From US20250387419A1, “PARP INHIBITOR-RESISTANT PATIENT TREATED WITH TH-302” (ASCENTAWITS PHARMACEUTICALS, LTD., priority 2021, published 2025) come the findings set out here.

Assay [1] deals with BRCA-mutated Capan-1 cell line. The assay can be described thus: In vitro cell proliferation inhibition (CTG). The class given is cell-based, human. As to conditions: for IC50: Homo sapiens, CAPAN-1, Capan-1, 3 h treatment, 72 h. The source says: (§1) The applicant specially studied in vitro cell proliferation inhibition of Capan-1 and BxPc-3 cell lines by the hypoxia-activated anti-cancer prodrugs TH-302 and tirapazamine under normoxia and hypoxia. The Capan-1 cell line was a BRCA-mutated cell line, and the BxPc-3 cell line was a BRCA wild-type (i.e., non-BRCA-mutated) cell line. This experiment was intended to verify the difference of the hypoxia-activated anti-cancer prodrugs, TH-302 and tirapazamine, in sensitivity to BRCA mutations.
(§2) • 1) Capan-1/BxPc-3 cell suspensions were added to two types of 24-well plates, 495 μL each well. Density of the cells was 6×10^4 per well. 24-well plates with glass inserts were used in hypoxic tests, and ordinary plastic 24-well plates were used in normoxic tests. • 2) The cells were incubated overnight in an incubator at 37° C. in 5% CO2. • 3) Compound Processing
(§3) A hypoxia workstation was tuned to create a hypoxic environment (O2<0.01%), and an oxygen indicator was used to confirm the hypoxia in the workstation.
(§4) 24 hours after cell seeding, the 24-well plates with glass inserts were transferred into the hypoxia workstation.
(§5) The 24-well plates were placed on vortex shakers, uncovered and shaken to allow air exchange for 5 minutes.
(§6) To each well in a monotherapy group, a 100× test compound solution was added.
(§7) 24 hours after cell seeding, 5 μL of the 100× test compound solution was added to each well. Three replicate wells were set up for each test group.

For assay [2], the system named is BRCA wild-type BxPc-3 cell line. The experiment in a line: In vitro cell proliferation inhibition (CTG). It counts as cell-based. As to conditions: for IC50: Homo sapiens, BXPC-3, BxPc-3, 3 h treatment, 72 h.
From the text: as §1, §2, §3, §4, §5, §6, §7

The IC50 is the midpoint of a concentration-inhibition curve. With `Nc1n[n+]([O-])c2ccccc2[n+]1[O-]` [tirapazamine, reference compound], the results for the “Ratio (21% O2/0.01% O2)” value in assay [1] (Capan-1) and in assay [2] (BxPc-3) were over 68.82 and over 60.19, respectively. Also, the IC50 was over 2000 µM in assay [1] (21% O2), 29.1 µM in assay [1] (<0.01% O2), over 2000 µM in assay [2] (21% O2) and 33.2 µM in assay [2] (<0.01% O2).
